Experimental data reported in PMC9290024 (ACS Medicinal Chemistry Letters, 2022).

How the values were obtained:
[1] = Stability in rat hepatocytes; type: in vitro ADME; conditions: 0.5 μM, 60 min
[2] = Stability in mouse hepatocytes; type: in vitro ADME; conditions: 0.5 μM, 60 min
[3] = Stability in human hepatocytes; type: in vitro ADME; conditions: 0.5 μM, 120 min
[4] = Pharmacokinetics in CD-1 IGS mouse; conditions: mouse PK studies; for parent recovered in feces following iv administration: data not shown

## CC(=O)N1CCN([C@H]2CCC[C@@H](NC(=O)c3cc4c(F)ccc(C)c4[nH]3)C2)CC1 [EZM0414]
[1]
  scaled Clint, rat hepatocytes: 154 mL min^–1 kg^–1
[2]
  scaled Clint, mouse hepatocytes: 216 mL min^–1 kg^–1
[3]
  scaled Clint, human hepatocytes: 9 mL min^–1 kg^–1

## CC(=O)N1CC[C@H]2CN([C@H]3CCC[C@@H](NC(=O)c4cc5c(F)ccc(C)c5[nH]4)C3)C[C@H]21 [compound 8]
[1]
  scaled Clint, rat hepatocytes: 265 mL min^–1 kg^–1
[4]
  oral absorption: reasonable oral absorption
  parent recovered in feces following iv administration: 17–30%
[2]
  scaled Clint, mouse hepatocytes: 889 mL min^–1 kg^–1
[3]
  scaled Clint, human hepatocytes: 18 mL min^–1 kg^–1

## CC(=O)N1CC[C@H]2[C@@H]1CCN2[C@H]1CCC[C@@H](NC(=O)c2cc3c(F)ccc(C)c3[nH]2)C1 [compound 9]
[1]
  scaled Clint, rat hepatocytes: 72 mL min^–1 kg^–1
[4]
  oral absorption: reasonable oral absorption
  parent recovered in feces following iv administration: 17–30%
[2]
  scaled Clint, mouse hepatocytes: 103 mL min^–1 kg^–1
[3]
  scaled Clint, human hepatocytes: 5 mL min^–1 kg^–1

## Cc1ccc(F)c2cc(C(=O)N[C@@H]3CCC[C@H](N4CCN5C(=O)CC[C@H]5C4)C3)[nH]c12 [compound 7]
[1]
  scaled Clint, rat hepatocytes: 69 mL min^–1 kg^–1
[2]
  scaled Clint, mouse hepatocytes: 425 mL min^–1 kg^–1
[3]
  scaled Clint, human hepatocytes: 23 mL min^–1 kg^–1

## Cc1ccc(F)c2cc(C(=O)N[C@@H]3CCC[C@H](N4CC[C@H](N(C)S(C)(=O)=O)C4)C3)[nH]c12 [EPZ-719, reference compound]
[1]
  scaled Clint, rat hepatocytes: 137 mL min^–1 kg^–1
[2]
  scaled Clint, mouse hepatocytes: 721 mL min^–1 kg^–1
[3]
  scaled Clint, human hepatocytes: 51 mL min^–1 kg^–1

## CC(=O)N1CCN(c2cccc(NC(=O)c3cc4c(F)ccc(C)c4[nH]3)c2)CC1 [compound 3]
[1]
  scaled Clint, rat hepatocytes: 283 mL min^–1 kg^–1
[2]
  scaled Clint, mouse hepatocytes: 678 mL min^–1 kg^–1
[3]
  scaled Clint, human hepatocytes: 32 mL min^–1 kg^–1
